Results published in ChEMBL document CHEMBL1145130, “S-acyl-2-thioethyl phosphoramidate diester derivatives as mononucleotide prodrugs” (J Med Chem, 2003).

Key:
MT4 = experiment: Cytotoxic concentration required to reduce viability of uninfected cells in MT-4 cell line; assay type: functional; conditions: Homo sapiens
[1] = system: Human immunodeficiency virus 1; experiment: Effective concentration required to inhibit HIV-1 replication in CEM-SS cell line; assay type: functional, organism-based; conditions: Human immunodeficiency virus 1, CEM-SS
CEM/TK- (Homo sapiens) = experiment: Cytotoxic concentration required to reduce viability of uninfected cells in CEM/TK cell line
[2] = system: Human immunodeficiency virus 1; experiment: Effective concentration required to inhibit HIV-1 replication in CEM/TK cell line; assay type: functional, organism-based; conditions: Human immunodeficiency virus 1, CEM-TK(-)
[3] = system: Human immunodeficiency virus 1; experiment: Effective concentration required to inhibit HIV-1 replication in MT-4 cell line; assay type: functional, organism-based; conditions: Human immunodeficiency virus 1, MT4
CEM-SS = experiment: Cytotoxic concentration required to reduce viability of uninfected cells in CEM-SS cell line; assay type: functional; conditions: Homo sapiens
CEM-TK(-) (Homo sapiens) = experiment: Compound was tested for its cytotoxic concentration required to reduce viability of uninfected cells in CEM/TK(-) cell line

`COC(=O)[C@H](C)NP(=O)(OC[C@H]1O[C@@H](n2cc(C)c(=O)[nH]c2=O)C[C@@H]1N=[N+]=[N-])Oc1ccccc1` (stereo not given in full) gave a CC50 (MT4) of over 10000 nM, an EC50 [1] of 50 nM and a CC50 (CEM/TK- (Homo sapiens)) of over 100000 nM. The EC50 [2] was 4300 nM, the EC50 [3] was 340 nM and the CC50 (CEM-SS) was over 100000 nM.
Work on `CCC(NP(=O)(OCCSC(=O)C(C)(C)C)OCC1OC(n2cc(C)c(=O)[nH]c2=O)CC1N=[N+]=[N-])C(=O)OC` (stereo not given) yielded a CC50 (MT4) of over 100000 nM, an EC50 [1] of 6 nM and a CC50 (CEM/TK- (Homo sapiens)) of over 100000 nM. The EC50 [2] was 2400 nM, the EC50 [3] was 130 nM and the CC50 (CEM-SS) was over 100000 nM.
`COC(=O)C(C)(C)NP(=O)(OCCSC(=O)C(C)(C)C)OCC1OC(n2cc(C)c(=O)[nH]c2=O)CC1N=[N+]=[N-]` (stereo not given) was tested, and the CC50 (MT4) was over 100000 nM, the EC50 [1] was 80 nM and the EC50 [2] was 2900 nM. It also gave a CC50 (CEM-TK(-) (Homo sapiens)) of over 100000 nM, an EC50 [3] of 540 nM and a CC50 (CEM-SS) of over 100000 nM.
For `COC(=O)[C@H](COC(C)=O)NP(=O)(OCCSC(=O)C(C)(C)C)OCC1OC(n2cc(C)c(=O)[nH]c2=O)CC1N=[N+]=[N-]` (stereo not given in full), the CC50 (MT4) was over 100000 nM, the EC50 [1] was 7 nM and the CC50 (CEM/TK- (Homo sapiens)) was over 100000 nM. For the same compound, the EC50 [2] was 16000 nM, the EC50 [3] was 53 nM and the CC50 (CEM-SS) was over 100000 nM.
Work on `COC(=O)[C@H](Cc1ccccc1)NP(=O)(OCCSC(=O)C(C)(C)C)OCC1OC(n2cc(C)c(=O)[nH]c2=O)CC1N=[N+]=[N-]` (stereo not given in full) yielded a CC50 (MT4) of over 10000 nM, an EC50 [1] of 27 nM and a CC50 (CEM/TK- (Homo sapiens)) of over 10000 nM. It also gave an EC50 [2] of 2300 nM, an EC50 [3] of 250 nM and a CC50 (CEM-SS) of over 100000 nM.
With `Cc1cn(C2CC(N=[N+]=[N-])C(COP(=O)(NC(C)C)OCCSC(=O)C(C)(C)C)O2)c(=O)[nH]c1=O` (stereo not given) the CC50 (MT4) was over 100000 nM, the EC50 [1] was 20 nM and the CC50 (CEM/TK- (Homo sapiens)) was over 100000 nM. For the same compound, the EC50 [2] was 750 nM, the EC50 [3] was 130 nM and the CC50 (CEM-SS) was over 100000 nM.
For `COC(=O)[C@H](C)NP(=O)(OCCSC(=O)C(C)(C)C)OCC1OC(n2cc(C)c(=O)[nH]c2=O)CC1N=[N+]=[N-]` (stereo not given in full), the CC50 (MT4) was over 100000 nM, the EC50 [1] was 54 nM and the CC50 (CEM/TK- (Homo sapiens)) was over 100000 nM. The EC50 [2] was 4300 nM, the EC50 [3] was 340 nM and the CC50 (CEM-SS) was over 100000 nM.
`COC(=O)[C@H](CO[Si](C)(C)C(C)(C)C)NP(=O)(OCCSC(=O)C(C)(C)C)OCC1OC(n2cc(C)c(=O)[nH]c2=O)CC1N=[N+]=[N-]` (stereo not given in full) gave a CC50 (MT4) of over 10000 nM, an EC50 [1] of 100 nM and a CC50 (CEM/TK- (Homo sapiens)) of over 10000 nM. It also gave an EC50 [2] of 1000 nM, an EC50 [3] of 400 nM and a CC50 (CEM-SS) of over 10000 nM.
`Cc1cn(C2CC(N=[N+]=[N-])C(COP(=O)(OCCSC(=O)C(C)(C)C)N3CCCCC3)O2)c(=O)[nH]c1=O` (stereo not given) was tested, and the CC50 (MT4) was over 100000 nM, the EC50 [1] was 20 nM and the CC50 (CEM/TK- (Homo sapiens)) was over 100000 nM. It also gave an EC50 [2] of 5200 nM, an EC50 [3] of 220 nM and a CC50 (CEM-SS) of over 100000 nM.
In the case of `Cc1cn([C@H]2C[C@H](N=[N+]=[N-])[C@@H](CO)O2)c(=O)[nH]c1=O` [ZIDOVUDINE], the CC50 (MT4) is reported as 75000 nM, the EC50 [1] is reported as 6 nM and the CC50 (CEM/TK- (Homo sapiens)) is reported as over 100000 nM. It also gave an EC50 [2] of over 100000 nM, an EC50 [3] of 17 nM and a CC50 (CEM-SS) of over 100000 nM.
`COC(=O)[C@H](Cc1ccc(O)cc1)NP(=O)(OCCSC(=O)C(C)(C)C)OCC1OC(n2cc(C)c(=O)[nH]c2=O)CC1N=[N+]=[N-]` (stereo not given in full) showed a CC50 (MT4) of over 100000 nM, an EC50 [1] of 90 nM and a CC50 (CEM/TK- (Homo sapiens)) of over 100000 nM. The EC50 [2] was 5300 nM, the EC50 [3] was 740 nM and the CC50 (CEM-SS) was over 100000 nM.
In the case of `COC(=O)C(C)NP(=O)(OCCSC(=O)C(C)(C)C)OCC1OC(n2cc(C)c(=O)[nH]c2=O)CC1N=[N+]=[N-]` (stereo not given), the CC50 (MT4) is reported as over 100000 nM, the EC50 [1] is reported as 20 nM and the CC50 (CEM/TK- (Homo sapiens)) is reported as over 100000 nM. The EC50 [2] was 2100 nM, the EC50 [3] was 420 nM and the CC50 (CEM-SS) was over 100000 nM.
In the case of `COC(=O)CNP(=O)(OCCSC(=O)C(C)(C)C)OCC1OC(n2cc(C)c(=O)[nH]c2=O)CC1N=[N+]=[N-]` (stereo not given), the CC50 (MT4) is reported as over 100000 nM, the EC50 [1] is reported as 9 nM and the CC50 (CEM/TK- (Homo sapiens)) is reported as over 100000 nM. The EC50 [2] was 1400 nM, the EC50 [3] was 450 nM and the CC50 (CEM-SS) was over 100000 nM.
`COC(=O)[C@@H](C)NP(=O)(OCCSC(=O)C(C)(C)C)OCC1OC(n2cc(C)c(=O)[nH]c2=O)CC1N=[N+]=[N-]` (stereo not given in full) gave a CC50 (MT4) of over 100000 nM, an EC50 [1] of 70 nM and a CC50 (CEM/TK- (Homo sapiens)) of over 100000 nM. For the same compound, the EC50 [2] was 2400 nM, the EC50 [3] was 450 nM and the CC50 (CEM-SS) was over 100000 nM.
In the case of `Cc1cn(C2CC(N=[N+]=[N-])C(COP(=O)(Nc3ccccc3)OCCSC(=O)C(C)(C)C)O2)c(=O)[nH]c1=O` (stereo not given), the CC50 (MT4) is reported as over 10000 nM, the EC50 [1] is reported as 5 nM and the CC50 (CEM/TK- (Homo sapiens)) is reported as over 10000 nM. For the same compound, the EC50 [2] was over 10000 nM, the EC50 [3] was 700 nM and the CC50 (CEM-SS) was over 10000 nM.
